Results published in PubChem BioAssay (NCI).
Several values for one entry are separate records, joined by “and”; a condition that tells them apart may be missing. Identical values can stand only once.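 Grown in 96-well plates, cells were treated for 48 hours with each compound at five concentrations. Insufficient inhibition: endpoint recorded as highest concentration tested. GI50 is the concentration that inhibits growth by half. Definition used: TGI = concentration required for complete inhibition of growth.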 Where a SMILES comes first, the peptide text is derived from it. [ ]: non-standard residue; d: D form. 2Nal = N[CH](Cc1ccc2ccccc2c1)C(=O)O

What was measured:
Test in all cases: growth of human tumour cells (NCI), 48 h
[1] = tested on: NCI-H23 lung
[2] = tested on: SK-OV-3 ovarian
[3] = tested on: LOX IMVI melanoma
[4] = tested on: UACC-257 melanoma
[5] = tested on: MALME-3M melanoma
[6] = tested on: HS 578T breast
[7] = tested on: OVCAR-8 ovarian
[8] = tested on: SF-268 CNS
[9] = tested on: HL-60(TB) leukemia
[10] = tested on: SNB-75 CNS

Compound | GI50 [1] | TGI [1] | GI50 [2] | TGI [2] [µM] | GI50 [3] [µM] | TGI [3] [µM] | GI50 [4] | TGI [4] [µM] | GI50 [5] [µM] | TGI [5] [µM] | GI50 [6] [µM] | TGI [6] [µM] | GI50 [7] [µM] | TGI [7] [µM] | GI50 [8] [µM] | TGI [8] [µM] | GI50 [9] | TGI [9] | GI50 [10] | TGI [10] [µM]
COc1ccc(OC)c(-c2nc3sccn3c2/C=C2/C(=O)Nc3ccccc32)c1 | 0.255 µM | 1.69 µM | 0.584 µM | 6.36 | 2.82 | 35.1 | 11.6 µM | 34.7 | 0.979 | 21.2 | 0.415 | 2.3 | 0.945 | > 46.5 | 1.33 | 24.2 | 0.0524 µM | 26.5 µM | 2.95 µM | > 100
COc1ccc2[nH]cc(/C=C3\C(=O)Nc4ccccc43)c2c1 | 10.5 µM | 49.6 µM | 4.75 µM | 21.5 | 4.62 | 15.9 | 14.3 µM | 73.1 | 11.2 | 49.1 | 3.79 | 19.9 | 7.02 | 21.8 | 5.92 | 29.9 | 1.78 µM | 4.26 µM | 3.14 µM | 15.1
O=C1OC(c2ccc([N+](=O)[O-])cc2)=N/C1=C\c1ccc(O)cc1 |  | > 100 µM |  | > 100 |  | > 100 |  | > 100 |  | > 100 |  | > 100 |  | > 100 |  | > 100 |  | > 100 µM |  | > 100
COc1cc(/C=C2\C(=O)N(c3c(Cl)cccc3Cl)c3ccccc32)cc(OC)c1O | 1.47 µM | 14.4 µM | 2.06 µM | 18.9 | 0.303 | 4.65 | 2.19 µM | 19.6 | 0.537 | 16 | 8.98 | > 27.8 | 0.442 | 19.8 | 0.413 | 14.6 | 1.01 µM | 8.74 µM | 1.03 µM | 17
CC(NC(=O)C(N)Cc1ccccc1)C(=O)NC(Cc1ccc(O)cc1)C(=O)NC(Cc1c[nH]c2ccccc12)C(=O)NC(CCCCN)C(=O)NC(C(=O)NC(C)C(=O)NC(Cc1ccc2ccccc2c1)C(N)=O)C(C)C (centres undefined) (H-FAYWKVA[2Nal]-NH2; configuration not given here) | 25.7 µM | > 12.5 µM and 75.4 µM |  | > 12.5 |  | > 12.5 | > 100 µM | > 100 |  | > 12.5 |  | > 12.5 | 37.2 | > 100 |  | > 12.5 | 18 µM | > 12.5 µM and 31.9 µM |  | 71.8
CCOC(=O)C(=Cc1ccc(Br)cc1)C(=O)OCC | 2.32 µM | 5.7 µM | 5.41 µM | 17 | 0.793 | 2.24 | 1.88 µM | 4.15 | 2.32 | 5.59 | 4.03 | > 19.6 | 2.36 | 6.79 | 1.91 | 3.95 | 1.63 µM | 7.53 µM | 1.59 µM | 3.17
O=C1C(Nc2ccccn2)=C(I)C(=O)c2ncccc21 | 0.584 µM | 2.61 µM | 1.33 µM | 2.64 | 0.305 | 1.66 | 1.59 µM | 3.49 | 1.27 | 2.54 | 1.2 | 4.9 | 1.29 | 5.87 | 1.34 | 3.8 | 1.63 µM | 3.77 µM | 1.01 µM | 2.23
C/C=C(/C)C(=O)OC1C=C(CO)C(=O)C(OC(=O)/C(C)=C\C)C1C(C)C (centres undefined) | 1.5 µM | 3.23 µM | 2.27 µM | 4.48 | 0.604 | 1.75 | 1.28 µM | 2.65 | 0.61 | 1.63 | 2.35 | 6.29 | 0.633 | 2.21 | 1.46 | 3.05 | 0.403 µM | 3.86 µM | 1.4 µM | 2.73
O=C(N/N=C/c1cc2ccccc2c2ccccc12)c1cc(O)c(O)c(O)c1 | 3.4 µM | 14.3 µM | 4.31 µM | 15.6 | 2.38 | 5.98 | 10.2 µM | 24.6 | 2.27 | 7.19 | 2.67 | 8.86 | 3.72 | 15.6 | 3.74 | 14.7 | 3.54 µM | 15.2 µM | 2.1 µM | 14.3
O=c1cccc(C#CCCCCOC2CCCO2)o1 (centres undefined) | 5 µM | 14.9 µM | > 30.4 µM | > 54.1 | 32.6 | > 74.5 | 9.49 µM | > 20.2 | 16.5 | 47 | 7.46 | 29.2 | 14.2 | > 80.7 | 9.14 | > 77.6 | 20.7 µM | 52.9 µM | 11.4 µM | > 21.4
CC(=O)N1c2ccccc2C23CCN4CC5=CCOC(O)C(C5CC42)C13 (centres undefined) |  | > 100 µM |  | > 100 |  | > 100 |  | > 100 |  | > 100 |  | > 100 |  | > 100 |  | > 100 |  | > 100 µM |  | > 100
COC(=O)c1c2c(c(C)[n+]([O-])c1C)C(=O)C(NCc1ccc(F)c(Cl)c1)=CC2=O | 1.74 µM | 4.77 µM | 3.57 µM | 13.6 | 2.34 | 8.88 | 1.28 µM | 3.1 | 0.214 | 0.658 | 3.22 | 21.5 | 2.38 | 13.9 | 2.64 | 13.2 | 1.39 µM | 5.68 µM | 2.74 µM | 9.32
O=C1c2cccc3c(N4CCN(c5ccc6c7c(cccc57)C(=O)N(CCN5CCNCC5)C6=O)CC4)ccc(c23)C(=O)N1CCN1CCNCC1 | 11 µM | 26.3 µM | 25.7 µM | 82.9 | 6.57 | 25.4 | 19.5 µM | 37.9 | 17.5 | 40 | 17.2 | 44.8 | 10.9 | 41.5 | 16.8 | 70.7 | 4.19 µM | 20.6 µM | 17.4 µM | 33.8
O=[N+]([O-])c1ccc(N(CCO)CCO)c2c1no[n+]2[O-] | 1.23 µM | 4.2 µM | 1.21 µM | 4.14 | 1.03 | 2.43 | 1.89 µM | 6.54 | 1.57 | 4.64 | 0.705 | 4.29 | 1.37 | 7.02 | 1.24 | 5.02 | 0.759 µM | 3.57 µM | 0.961 µM | 5.47
O=C1/C(=C\c2ccccc2)c2ccccc2N1Cc1ccccc1 |  | 16.8 µM |  | 15.8 |  | 17 |  | 17.6 |  | 12.8 |  | 20.9 |  | 19 |  | 14.8 |  | > 31.6 µM |  | 22.8
NC(N)=NC(N)=NCCc1ccccc1 | 50.5 µM and 34.7 µM | > 100 µM | 64.9 µM and > 100 µM | > 100 | > 100 | > 100 | > 100 µM and 97.3 µM | > 100 | 72 | > 100 | > 100 | > 100 | > 100 | > 100 | > 100 | > 100 | 77.4 µM and > 100 µM | > 100 µM | > 100 µM and 81.2 µM | > 100
Cc1cc(NC(=O)CCc2ccc(N3C(N)=NC(N)=NC3(C)C)cc2)ccc1S(=O)(=O)F | 1.76 µM | > 100 µM | 4.58 µM | > 100 | 0.172 | > 100 | 15.1 µM | > 100 | > 89.4 | > 100 | 28.3 | > 100 | 0.6 | > 100 | 0.524 | > 100 | 3.45 µM | > 100 µM | 0.517 µM | 80.1
CCC(=S)N(C)O |  | > 100 µM |  | > 100 |  | 51.8 |  | > 100 |  | > 100 |  | > 100 |  | > 97.1 |  | > 100 |  | 13.6 µM |  | > 95.4
N#Cc1cccc(Nc2nccc(-c3cnn4ncccc34)n2)c1 | 0.00686 µM | 0.0239 µM | 0.014 µM | > 25 | 0.00279 | > 8.75 | 0.00594 µM | 0.0154 | 0.0076 | 0.0209 | 0.00482 | 0.021 | 0.0065 | > 25 | 0.00498 | 0.3 | 0.00363 µM | < 0.0129 µM | 0.00494 µM | 0.012
CCN(C)S(=O)(=O)Nc1cccc(Nc2ncnc3cc(NC(=O)CCl)ccc23)c1Cl | 2.54 µM | 7.88 µM | 5.58 µM | 19.1 | 1.01 | 4.44 | 3.59 µM | 15.8 | 1.42 | 5.62 | 3.55 | 18.6 | 5.18 | 17.6 | 2.84 | 7.72 | 4.74 µM | 11.3 µM | 3.36 µM | 7.67
C=C1CC2(OC1=O)c1ccccc1CCc1ccccc12 |  | 23 µM |  | 31.9 |  | 2.9 |  | 7.9 |  | 4.25 |  | 5.03 |  | 9.9 |  | 4.54 |  | 3.26 µM |  | 15.6
O=S(=O)(Nc1ccc(Cl)c(C(F)(F)F)c1)c1ccc(-c2cnc(C3CC3)o2)cc1 | 1.37 µM | 6.37 µM | 0.919 µM | 5.18 | 0.394 | 3.22 | 1.29 µM | 7.93 | 0.624 | 4.41 | 0.334 | 3.48 | 1.54 | > 36.2 | 1.24 | 10.8 | 0.261 µM | 1.49 µM | 0.125 µM | 1.72
CC1=COC2=C(C)C(=O)C(=O)c3c(C)ccc1c32 |  | 14.3 µM |  | > 93.2 |  | 16 |  | 20.6 |  | 16 |  | > 95.7 |  | 12.4 |  | 36.6 |  | 5.38 µM |  | 42.6
CN(C)CCCC1(c2ccc(F)cc2)OCc2cc(-c3ccc4cc[nH]c4c3)ccc21 (centres undefined) | 1.97 µM | 4.11 µM | 3.38 µM | 12.9 | 1.78 | 3.27 | 1.96 µM | 3.91 | 1.71 | 3.32 | 1.8 | 4.27 | 3.32 | 13.8 | 1.64 | 3.26 | 1.74 µM | 3.77 µM | 1.35 µM | 3.54
O=C1Nc2ccccc2SC1C1SC(=S)N(Cc2ccccc2)C1=O (centres undefined) | 11.8 µM | 35.2 µM | 22.9 µM | > 100 | 2.08 | 7.78 | 20.1 µM | 39 | 15.9 | > 61.5 | 5.52 | 31.2 | 23.7 | > 88.2 | 3.37 | 11.4 | 3.46 µM | 32.2 µM | 10.5 µM | 24.6
N#Cc1ccc(-n2cnc(NC(=O)[C@H]3CCN(C#N)C3)c2)cc1 | 1.78 µM | 12.6 µM | 3.77 µM | > 51.4 | 1.27 | > 100 | 1.94 µM | 10.1 | 0.312 | 6.58 | 1.9 | 13.6 | 1.92 | > 100 | 2.83 | 25.5 | 0.51 µM | 2.86 µM | 0.519 µM | 3.74
